The values that follow are results of earlier work, collected in PMC7383509 (Clinical Pharmacology in Drug Development, 2019).

A value given as a limit tells only on which side of the number the result lay.

Data set [1] deals with μ receptor. To be noted: major metabolites of oliceridine; ref data on file; cited from earlier work.
The conditions of data set [2]: major metabolite of oliceridine, cited from earlier work.

In the case of `NCC[C@@]1(c2ccccn2)CCOC2(CCCC2)C1` [TRV0109662], in data set [1], the “Activity at the μ receptor” value is “inactive”. Moreover, the “Share of total by AUC” value in data set [2] is on record as no less than 10%. In addition, in data set [2] (ref data on file), the “Share of total drug‐related material” value is 17%.
